Reference: ChEMBL document CHEMBL3351422, “Discovery of N-substituted 7-azaindoline derivatives as potent, orally available M1 and M4 muscarinic acetylcholine receptors selective agonists” (Bioorg Med Chem Lett, 2014)

What was measured:
[1] = Half life in monkey at 0.25 mg/kg, iv and 2.5 mg/kg, po; assay type: ADME, organism-based, Macaca mulatta; conditions: rhesus monkey, in vivo
[2] = Volume of distribution at steady state in monkey at 0.25 mg/kg, iv and 2.5 mg/kg, po; assay type: ADME, organism-based, Macaca mulatta; conditions: rhesus monkey, in vivo, read-out: Vdss
[3] = target: T1, Muscarinic acetylcholine receptor M4 (Homo sapiens) (UniProt P08173); assay: Intrinsic activity at muscarinic M4 receptor (unknown origin) by calcium mobilization assay; assay type: functional
T1 sequence (whole entry): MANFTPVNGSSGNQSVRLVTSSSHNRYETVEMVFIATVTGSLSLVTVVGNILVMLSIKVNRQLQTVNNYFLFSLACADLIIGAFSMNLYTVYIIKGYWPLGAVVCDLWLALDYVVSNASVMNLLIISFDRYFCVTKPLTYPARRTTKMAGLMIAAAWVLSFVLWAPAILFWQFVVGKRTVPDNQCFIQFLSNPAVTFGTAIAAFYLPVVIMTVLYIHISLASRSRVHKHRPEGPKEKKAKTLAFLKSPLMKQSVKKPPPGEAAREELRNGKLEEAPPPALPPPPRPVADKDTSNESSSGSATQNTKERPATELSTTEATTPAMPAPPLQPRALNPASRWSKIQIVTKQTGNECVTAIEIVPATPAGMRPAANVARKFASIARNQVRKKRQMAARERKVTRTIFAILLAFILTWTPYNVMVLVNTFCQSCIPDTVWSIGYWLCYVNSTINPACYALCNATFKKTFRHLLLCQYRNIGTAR

[4] = target: cAMP and cAMP-inhibited cGMP 3',5'-cyclic phosphodiesterase 10A (Homo sapiens) (UniProt Q9Y233); assay: Inhibition of human PDE10A1 at 3 uM by radioligand binding assay
Sequence of cAMP and cAMP-inhibited cGMP 3',5'-cyclic phosphodiesterase 10A (Homo sapiens) (Q9Y233 whole entry): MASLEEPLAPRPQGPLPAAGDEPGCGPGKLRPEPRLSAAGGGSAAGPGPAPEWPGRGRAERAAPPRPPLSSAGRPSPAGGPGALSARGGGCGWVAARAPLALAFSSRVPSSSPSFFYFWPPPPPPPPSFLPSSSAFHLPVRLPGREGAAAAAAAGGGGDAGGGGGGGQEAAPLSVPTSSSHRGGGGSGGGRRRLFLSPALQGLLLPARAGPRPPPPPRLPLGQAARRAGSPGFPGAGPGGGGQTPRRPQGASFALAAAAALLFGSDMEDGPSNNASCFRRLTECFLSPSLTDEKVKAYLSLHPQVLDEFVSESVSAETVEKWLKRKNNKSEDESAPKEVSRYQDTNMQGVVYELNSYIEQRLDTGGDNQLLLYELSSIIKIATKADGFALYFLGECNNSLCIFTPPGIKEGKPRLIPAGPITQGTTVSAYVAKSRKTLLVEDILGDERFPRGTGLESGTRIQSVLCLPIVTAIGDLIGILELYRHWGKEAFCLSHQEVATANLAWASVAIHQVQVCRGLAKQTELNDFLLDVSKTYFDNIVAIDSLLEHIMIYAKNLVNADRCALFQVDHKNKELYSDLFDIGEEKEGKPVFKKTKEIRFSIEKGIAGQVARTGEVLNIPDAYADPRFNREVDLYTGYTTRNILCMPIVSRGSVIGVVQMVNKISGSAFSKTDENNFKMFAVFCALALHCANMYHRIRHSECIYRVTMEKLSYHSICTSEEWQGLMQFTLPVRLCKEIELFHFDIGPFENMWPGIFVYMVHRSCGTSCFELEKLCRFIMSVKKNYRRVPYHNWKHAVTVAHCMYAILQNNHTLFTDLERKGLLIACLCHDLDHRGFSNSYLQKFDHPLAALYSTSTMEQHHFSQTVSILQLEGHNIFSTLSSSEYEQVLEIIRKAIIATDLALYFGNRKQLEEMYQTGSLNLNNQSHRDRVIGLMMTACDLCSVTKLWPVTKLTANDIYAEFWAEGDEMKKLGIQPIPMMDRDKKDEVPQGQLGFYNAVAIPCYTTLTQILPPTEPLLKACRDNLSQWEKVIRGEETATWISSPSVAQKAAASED

[5] = target: Adenosine receptor A2a (Homo sapiens) (UniProt P29274); assay: Inhibition of human adenosine A2A receptor at 3 uM by radioligand binding assay
Sequence of Adenosine receptor A2a (Homo sapiens) (P29274 whole entry): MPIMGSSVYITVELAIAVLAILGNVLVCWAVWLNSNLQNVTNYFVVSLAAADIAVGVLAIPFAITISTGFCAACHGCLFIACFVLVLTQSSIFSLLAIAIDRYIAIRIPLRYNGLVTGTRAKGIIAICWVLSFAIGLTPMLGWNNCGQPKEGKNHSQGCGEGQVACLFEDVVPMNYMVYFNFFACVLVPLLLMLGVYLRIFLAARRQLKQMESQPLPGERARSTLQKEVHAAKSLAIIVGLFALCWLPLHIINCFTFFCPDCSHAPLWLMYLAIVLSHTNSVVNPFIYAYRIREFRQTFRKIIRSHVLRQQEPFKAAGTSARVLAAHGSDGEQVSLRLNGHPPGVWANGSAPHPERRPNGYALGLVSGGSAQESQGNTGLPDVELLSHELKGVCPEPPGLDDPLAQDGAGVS

[6] = target: Adrenergic receptor alpha-1 (Rattus norvegicus) (UniProt P15823+P23944+P43140); assay: Inhibition of rat alpha1 adrenergic receptor at 3 uM by radioligand binding assay
[7] = target: Alpha-1A adrenergic receptor (Rattus norvegicus) (UniProt P43140); assay: Inhibition of rat alpha1A adrenergic receptor at 3 uM by radioligand binding assay
[8] = target: Alpha-1B adrenergic receptor (Rattus norvegicus) (UniProt P15823); assay: Inhibition of rat alpha1B adrenergic receptor at 3 uM by radioligand binding assay
Sequence of Alpha-1B adrenergic receptor (Rattus norvegicus) (P15823 whole entry): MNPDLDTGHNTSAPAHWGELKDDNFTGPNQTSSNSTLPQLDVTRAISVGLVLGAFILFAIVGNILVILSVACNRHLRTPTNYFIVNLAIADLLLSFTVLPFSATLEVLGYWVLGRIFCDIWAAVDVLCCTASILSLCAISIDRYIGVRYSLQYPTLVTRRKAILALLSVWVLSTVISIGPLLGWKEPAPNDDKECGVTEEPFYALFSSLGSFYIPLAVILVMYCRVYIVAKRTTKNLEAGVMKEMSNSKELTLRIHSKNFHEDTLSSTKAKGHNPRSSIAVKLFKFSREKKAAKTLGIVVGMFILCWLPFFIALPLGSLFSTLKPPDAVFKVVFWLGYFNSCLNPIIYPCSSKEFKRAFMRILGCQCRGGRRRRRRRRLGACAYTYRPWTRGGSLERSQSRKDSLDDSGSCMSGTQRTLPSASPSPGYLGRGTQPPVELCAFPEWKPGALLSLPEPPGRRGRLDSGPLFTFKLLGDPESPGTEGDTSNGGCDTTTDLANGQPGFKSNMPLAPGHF

[9] = target: Alpha-2A adrenergic receptor (Homo sapiens) (UniProt P08913); assay: Inhibition of human alpha2A adrenergic receptor at 3 uM by radioligand binding assay
[10] = target: Beta-2 adrenergic receptor (Homo sapiens) (UniProt P07550); assay: Inhibition of human beta2 adrenergic receptor at 3 uM by radioligand binding assay
Sequence of Beta-2 adrenergic receptor (Homo sapiens) (P07550 whole entry, looked up): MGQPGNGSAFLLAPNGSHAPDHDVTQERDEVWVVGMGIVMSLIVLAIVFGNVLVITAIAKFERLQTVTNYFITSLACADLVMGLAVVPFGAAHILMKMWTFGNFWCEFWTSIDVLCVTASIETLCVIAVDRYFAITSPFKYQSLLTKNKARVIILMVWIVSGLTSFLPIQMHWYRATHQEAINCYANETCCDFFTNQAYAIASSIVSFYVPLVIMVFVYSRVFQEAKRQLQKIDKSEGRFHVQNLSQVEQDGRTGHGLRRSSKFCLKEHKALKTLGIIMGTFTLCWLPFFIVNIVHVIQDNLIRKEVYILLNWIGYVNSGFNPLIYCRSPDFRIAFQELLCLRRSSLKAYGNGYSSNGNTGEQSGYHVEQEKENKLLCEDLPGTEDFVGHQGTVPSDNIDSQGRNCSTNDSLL

[11] = target: L-type calcium channel, dihydropyridine binding site (Rattus norvegicus, UniProt P22002+P27732+Q02485); assay: Inhibition of rat L-type calcium channel dihydropyridine binding site at 3 uM by radioligand binding assay; assay type: protein assay
[12] = target: Endothelin receptor type B (Homo sapiens) (UniProt P24530); assay: Inhibition of human ETB receptor at 3 uM by radioligand binding assay
Sequence of Endothelin receptor type B (Homo sapiens) (P24530 whole entry): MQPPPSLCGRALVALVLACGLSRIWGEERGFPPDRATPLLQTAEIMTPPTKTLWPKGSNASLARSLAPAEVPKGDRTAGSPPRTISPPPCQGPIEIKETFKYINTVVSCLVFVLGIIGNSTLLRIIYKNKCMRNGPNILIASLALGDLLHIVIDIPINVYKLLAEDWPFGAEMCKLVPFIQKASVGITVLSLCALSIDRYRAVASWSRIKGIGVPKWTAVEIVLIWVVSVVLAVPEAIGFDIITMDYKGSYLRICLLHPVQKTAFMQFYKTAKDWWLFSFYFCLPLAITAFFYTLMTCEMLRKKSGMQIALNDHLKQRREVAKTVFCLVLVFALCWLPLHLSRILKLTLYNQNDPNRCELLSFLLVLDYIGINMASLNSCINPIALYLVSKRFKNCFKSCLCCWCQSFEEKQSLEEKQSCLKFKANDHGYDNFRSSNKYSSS

[13] = species on record: Rattus norvegicus; assay: Inhibition of rat GABAA central type receptor flunitrazepam binding site at 3 uM by radioligand binding assay
[14] = species on record: Rattus norvegicus; assay: Inhibition of rat GABAB type receptor at 3 uM by radioligand binding assay
[15] = target: Gamma-aminobutyric acid type B receptor subunit 1 (Homo sapiens) (UniProt Q9UBS5); assay: Inhibition of human GABAB1A receptor at 3 uM by radioligand binding assay
Sequence of Gamma-aminobutyric acid type B receptor subunit 1 (Homo sapiens) (Q9UBS5 whole entry): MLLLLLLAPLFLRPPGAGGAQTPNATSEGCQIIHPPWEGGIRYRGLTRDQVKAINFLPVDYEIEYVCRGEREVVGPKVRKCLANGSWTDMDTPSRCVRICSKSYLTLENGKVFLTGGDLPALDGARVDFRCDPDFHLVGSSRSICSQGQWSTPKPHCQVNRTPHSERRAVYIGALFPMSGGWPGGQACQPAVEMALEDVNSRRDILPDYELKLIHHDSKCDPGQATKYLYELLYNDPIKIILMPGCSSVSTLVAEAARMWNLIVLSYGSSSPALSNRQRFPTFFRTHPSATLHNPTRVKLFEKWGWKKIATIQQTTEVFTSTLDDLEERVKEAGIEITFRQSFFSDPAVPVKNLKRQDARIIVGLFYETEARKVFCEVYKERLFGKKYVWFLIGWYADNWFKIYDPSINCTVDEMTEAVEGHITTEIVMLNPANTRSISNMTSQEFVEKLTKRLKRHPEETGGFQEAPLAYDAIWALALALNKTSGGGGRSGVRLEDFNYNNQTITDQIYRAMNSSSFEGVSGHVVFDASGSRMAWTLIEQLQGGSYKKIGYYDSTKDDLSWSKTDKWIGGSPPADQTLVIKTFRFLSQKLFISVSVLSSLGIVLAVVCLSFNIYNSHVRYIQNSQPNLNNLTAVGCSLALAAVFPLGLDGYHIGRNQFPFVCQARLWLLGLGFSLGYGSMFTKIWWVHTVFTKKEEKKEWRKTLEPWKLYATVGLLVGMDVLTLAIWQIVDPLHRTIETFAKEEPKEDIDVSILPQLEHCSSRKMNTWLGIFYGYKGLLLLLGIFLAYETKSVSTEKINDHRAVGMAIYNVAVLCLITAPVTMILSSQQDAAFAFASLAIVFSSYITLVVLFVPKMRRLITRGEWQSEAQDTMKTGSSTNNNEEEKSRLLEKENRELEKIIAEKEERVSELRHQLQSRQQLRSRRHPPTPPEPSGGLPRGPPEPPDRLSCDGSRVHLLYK

[16] = target: Glutamate NMDA receptor (Rattus norvegicus) (UniProt P35439+Q00959+Q00960+Q00961+Q62645+Q8VHN2+Q9R1M7); assay: Inhibition of rat NMDA receptor agonist binding site at 3 uM by radioligand binding assay; assay type: protein-complex assay
[17] = target: Histamine H2 receptor (Homo sapiens) (UniProt P25021); assay: Inhibition of human histamine H2 receptor at 3 uM by radioligand binding assay
Sequence of Histamine H2 receptor (Homo sapiens) (P25021 whole entry): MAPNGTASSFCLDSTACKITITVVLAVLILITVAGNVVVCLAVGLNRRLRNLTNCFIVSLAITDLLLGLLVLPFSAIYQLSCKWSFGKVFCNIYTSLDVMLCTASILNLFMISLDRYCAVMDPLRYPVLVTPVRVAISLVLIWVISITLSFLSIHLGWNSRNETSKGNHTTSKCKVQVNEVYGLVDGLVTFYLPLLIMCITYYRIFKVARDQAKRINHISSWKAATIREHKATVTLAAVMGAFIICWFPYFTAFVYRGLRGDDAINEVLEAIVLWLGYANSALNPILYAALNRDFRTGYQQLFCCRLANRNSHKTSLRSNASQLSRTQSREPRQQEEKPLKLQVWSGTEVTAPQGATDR

[18] = target: Neuronal acetylcholine receptor; alpha4/beta2 (Rattus norvegicus) (UniProt P09483+P12390); assay: Displacement of [3H]cytisine from rat alpha4beta2 nAChR; assay type: protein-complex assay; conditions: concentration not given here
[19] = species on record: Rattus norvegicus; assay: Inhibition of rat purinergic P2Y receptor at 3 uM by radioligand binding assay
[20] = target: 5-hydroxytryptamine receptor 1A (Homo sapiens) (UniProt P08908); assay: Inhibition of human 5-HT1A receptor at 3 uM by radioligand binding assay
[21] = target: Substance-P receptor (Homo sapiens) (UniProt P25103); assay: Inhibition of human NK1 receptor at 3 uM by radioligand binding assay
Sequence of Substance-P receptor (Homo sapiens) (P25103 whole entry): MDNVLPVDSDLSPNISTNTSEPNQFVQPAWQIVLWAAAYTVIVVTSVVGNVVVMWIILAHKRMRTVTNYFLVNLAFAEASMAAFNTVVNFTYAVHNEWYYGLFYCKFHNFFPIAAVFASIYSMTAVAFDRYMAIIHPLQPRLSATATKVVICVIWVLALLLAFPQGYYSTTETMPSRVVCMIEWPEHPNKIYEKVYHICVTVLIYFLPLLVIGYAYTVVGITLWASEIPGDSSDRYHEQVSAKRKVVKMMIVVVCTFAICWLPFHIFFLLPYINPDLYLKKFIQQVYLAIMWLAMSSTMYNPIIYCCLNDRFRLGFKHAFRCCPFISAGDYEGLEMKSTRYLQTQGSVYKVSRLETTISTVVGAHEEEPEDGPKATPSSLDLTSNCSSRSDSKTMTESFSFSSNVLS

[22] = species on record: Rattus norvegicus; assay: Inhibition of rat thyroid hormone receptor at 3 uM by radioligand binding assay
[23] = target: Muscarinic acetylcholine receptor M1 (Homo sapiens, UniProt P11229); assay: Agonist activity at muscarinic M1 receptor (unknown origin) by calcium mobilization assay; assay type: functional
Sequence of Muscarinic acetylcholine receptor M1 (P11229 whole entry): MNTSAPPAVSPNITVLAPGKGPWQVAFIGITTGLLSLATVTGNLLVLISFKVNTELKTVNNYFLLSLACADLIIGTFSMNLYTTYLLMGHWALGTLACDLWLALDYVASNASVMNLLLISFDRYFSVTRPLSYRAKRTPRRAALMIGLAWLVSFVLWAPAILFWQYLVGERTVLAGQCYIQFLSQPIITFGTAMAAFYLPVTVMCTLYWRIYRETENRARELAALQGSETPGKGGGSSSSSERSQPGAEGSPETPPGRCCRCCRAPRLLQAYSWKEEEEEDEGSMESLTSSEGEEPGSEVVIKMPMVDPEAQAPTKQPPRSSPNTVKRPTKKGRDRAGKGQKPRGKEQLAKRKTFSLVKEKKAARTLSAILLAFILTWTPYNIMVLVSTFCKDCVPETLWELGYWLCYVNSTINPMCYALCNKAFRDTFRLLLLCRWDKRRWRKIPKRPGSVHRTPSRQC

[24] = target: Muscarinic acetylcholine receptor M4 (Homo sapiens, UniProt P08173); assay: Agonist activity at muscarinic M4 receptor (unknown origin) by calcium mobilization assay; assay type: functional
[25] = target: T2, Muscarinic acetylcholine receptor M5 (Homo sapiens) (UniProt P08912); assay: Agonist activity at muscarinic M5 receptor (unknown origin) at 10 uM by calcium mobilization assay; assay type: functional
T2 sequence (whole entry): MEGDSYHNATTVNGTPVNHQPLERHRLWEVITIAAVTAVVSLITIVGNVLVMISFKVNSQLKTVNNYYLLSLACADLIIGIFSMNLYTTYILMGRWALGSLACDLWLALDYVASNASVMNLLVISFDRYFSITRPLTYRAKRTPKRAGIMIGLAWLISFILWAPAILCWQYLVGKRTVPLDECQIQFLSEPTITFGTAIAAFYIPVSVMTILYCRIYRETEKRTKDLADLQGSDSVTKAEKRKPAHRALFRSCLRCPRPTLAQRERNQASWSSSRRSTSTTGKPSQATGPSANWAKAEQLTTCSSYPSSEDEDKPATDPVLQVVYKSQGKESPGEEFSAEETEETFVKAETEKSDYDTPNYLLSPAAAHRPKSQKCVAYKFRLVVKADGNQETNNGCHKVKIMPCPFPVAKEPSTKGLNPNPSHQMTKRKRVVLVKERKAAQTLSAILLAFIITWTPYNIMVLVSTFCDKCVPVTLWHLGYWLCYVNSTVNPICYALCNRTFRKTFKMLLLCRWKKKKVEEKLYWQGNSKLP

[26] = target: Voltage-gated inwardly rectifying potassium channel KCNH2 (Homo sapiens, UniProt Q12809); assay: Inhibition of human ERG channel
[27] = Cmax in rat at 0.25 mg/kg, iv and 2.5 mg/kg, po; assay type: ADME, organism-based; conditions: in vivo
[28] = Half life in rat at 0.25 mg/kg, iv and 2.5 mg/kg, po; assay type: ADME, organism-based; conditions: in vivo
[29] = Volume of distribution at steady state in rat at 0.25 mg/kg, iv and 2.5 mg/kg, po; assay type: ADME, organism-based; conditions: in vivo, read-out: Vdss
[30] = tested on: Cricetinae; conditions: 3 uM
Description: Inhibition of hamster potassium channel at 3 uM by radioligand binding assay

## CCOC(=O)N1CCC(CN2CCC3(CC2)CN(C(=O)N(C)C)c2ncccc23)CC1.O=C(O)/C=C/C(=O)O
[1]
  half-life: 4.76 h
[2]
  Vd: 2.3 L/kg
[3]
  Intrinsic activity: 108%
[4]
  inhibition: -2%
[5]
  inhibition: 7%
[6]
  inhibition: 21%
[7]
  inhibition: 37%
[8]
  inhibition: 9%
[9]
  inhibition: -7%
[10]
  inhibition: -1%
[11]
  inhibition at 3 µM: 11%
[12]
  inhibition: -1%
[13]
  inhibition: -5%
[14]
  inhibition: 14%
[15]
  inhibition: 2%
[16]
  inhibition: 4%
[17]
  inhibition: 4%
[18]
  inhibition: 11%
[19]
  inhibition: 9%
[20]
  inhibition: -6%
[21]
  inhibition: 2%
[22]
  inhibition: 4%
[23]
  EC50: 133 nM
[24]
  EC50: 47 nM
[25]
  Activity: 11%
[26]
  IC50: > 10000 nM
[27]
  Cmax: 207 ng/mL
[28]
  half-life: 0.9 h
[29]
  Vd: 1.8 L/kg
[30]
  inhibition: 6%
